US20180127748A1, “METHODS RELATING TO THE PREVENTION AND TREATMENT OF DRUG RESISTANCE” (THE GENERAL HOSPITAL CORPORATION, priority 2015, published 2018)
Entries after “also recorded” stand apart in the source; their conditions may differ.

Tests used:
RPE cells [1] = test: FISH for hypoxia-dependent site-specific copy gain; type: cell-based, human
Experimental: Cells were plated onto culture dishes and allowed to adhere for 20-24 hours in normoxia (5% CO2, 21% O2, and 74% N2). For hypoxic treatment, cells were maintained in a HERA™ Cell 150 incubator (Thermo Scientific) flushed with 5% CO2, 1% O2, and balanced with N2 for the duration of the experiment. Incubator calibrations and verifications were carried out by Bianchi Associates Calibrations/Verifications.
For G1/S synchronization, cells were treated with 2 mM hydroxyurea (HU, Sigma) for 20 hours. To release, cells were washed twice with culture medium pre-conditioned in normoxia or hypoxia, and supplied with fresh pre-conditioned media. For JIB-04 treatment, normoxic cells were pre-treated with 62.5 nM JIB-04 (Xcessbio) for 24 hours, and then treated again with JIB-04 and either transferred to 1% O2 or maintained in normoxia for an additional 24 hours. […]
FISH was performed as described in (Manning et al. 2010; Black et al. 2013). For RPE cells, copy gain was scored as any cell with 3 or more distinct foci. Approximately 100 cells for each replicate were scored for all experiments. […]
FISH was performed as described in (Manning et al. 2010; Black et al. 2013). […] Images of multiple planes of fields of nuclei were acquired on an Olympus IX81™ Spinning Disk Microscope and analyzed using Slidebook 5.0™ software. […] Any foci that were touching were scored as a single copy to prevent increased numbers due to normally replicated foci. For RPE cells, copy gain was scored as any cell with 3 or more distinct foci. For 293T cells, copy gain was scored for any cell with 5 or more distinct foci. For UMRC2 cells, copy gain was scored for any cell with 6 or more foci. For SK-N-AS cells, copy gain was scored for any cell with 5 or more foci. For MDA-MB-468 cells, copy gain was scored for any cell with 5 or more foci. For MDA-MB-231 cells, copy gain was scored for any cell with 7 or more foci. Approximately 100 cells for each replicate were scored for all experiments. […]

RPE cells [2] = test: Cell cycle analysis by flow cytometry; type: cell-based, human; conditions: for cell cycle progression in hypoxia: 2 mM succinate
Experimental: Asynchronously growing, or G1/S arrested cells were prepared and fixed as in (Black et al. 2010). Cells were stained with 10 μM EdU for 1 hour prior to collection. Cell cycle was analyzed by PI staining or EdU incorporation using Click-IT EdU™ Flow Cytometry Assay Kit (Life Technologies). Flow cytometry of CD4+ T cells and cell cycle distribution were analyzed using a BD FACS ARIA II™.

KDM6B = KDM6B (Homo sapiens, UniProt O15054); conditions: Wang et al. 2013; cited from earlier work
Chain of KDM6B (O15054 whole entry, species assumed): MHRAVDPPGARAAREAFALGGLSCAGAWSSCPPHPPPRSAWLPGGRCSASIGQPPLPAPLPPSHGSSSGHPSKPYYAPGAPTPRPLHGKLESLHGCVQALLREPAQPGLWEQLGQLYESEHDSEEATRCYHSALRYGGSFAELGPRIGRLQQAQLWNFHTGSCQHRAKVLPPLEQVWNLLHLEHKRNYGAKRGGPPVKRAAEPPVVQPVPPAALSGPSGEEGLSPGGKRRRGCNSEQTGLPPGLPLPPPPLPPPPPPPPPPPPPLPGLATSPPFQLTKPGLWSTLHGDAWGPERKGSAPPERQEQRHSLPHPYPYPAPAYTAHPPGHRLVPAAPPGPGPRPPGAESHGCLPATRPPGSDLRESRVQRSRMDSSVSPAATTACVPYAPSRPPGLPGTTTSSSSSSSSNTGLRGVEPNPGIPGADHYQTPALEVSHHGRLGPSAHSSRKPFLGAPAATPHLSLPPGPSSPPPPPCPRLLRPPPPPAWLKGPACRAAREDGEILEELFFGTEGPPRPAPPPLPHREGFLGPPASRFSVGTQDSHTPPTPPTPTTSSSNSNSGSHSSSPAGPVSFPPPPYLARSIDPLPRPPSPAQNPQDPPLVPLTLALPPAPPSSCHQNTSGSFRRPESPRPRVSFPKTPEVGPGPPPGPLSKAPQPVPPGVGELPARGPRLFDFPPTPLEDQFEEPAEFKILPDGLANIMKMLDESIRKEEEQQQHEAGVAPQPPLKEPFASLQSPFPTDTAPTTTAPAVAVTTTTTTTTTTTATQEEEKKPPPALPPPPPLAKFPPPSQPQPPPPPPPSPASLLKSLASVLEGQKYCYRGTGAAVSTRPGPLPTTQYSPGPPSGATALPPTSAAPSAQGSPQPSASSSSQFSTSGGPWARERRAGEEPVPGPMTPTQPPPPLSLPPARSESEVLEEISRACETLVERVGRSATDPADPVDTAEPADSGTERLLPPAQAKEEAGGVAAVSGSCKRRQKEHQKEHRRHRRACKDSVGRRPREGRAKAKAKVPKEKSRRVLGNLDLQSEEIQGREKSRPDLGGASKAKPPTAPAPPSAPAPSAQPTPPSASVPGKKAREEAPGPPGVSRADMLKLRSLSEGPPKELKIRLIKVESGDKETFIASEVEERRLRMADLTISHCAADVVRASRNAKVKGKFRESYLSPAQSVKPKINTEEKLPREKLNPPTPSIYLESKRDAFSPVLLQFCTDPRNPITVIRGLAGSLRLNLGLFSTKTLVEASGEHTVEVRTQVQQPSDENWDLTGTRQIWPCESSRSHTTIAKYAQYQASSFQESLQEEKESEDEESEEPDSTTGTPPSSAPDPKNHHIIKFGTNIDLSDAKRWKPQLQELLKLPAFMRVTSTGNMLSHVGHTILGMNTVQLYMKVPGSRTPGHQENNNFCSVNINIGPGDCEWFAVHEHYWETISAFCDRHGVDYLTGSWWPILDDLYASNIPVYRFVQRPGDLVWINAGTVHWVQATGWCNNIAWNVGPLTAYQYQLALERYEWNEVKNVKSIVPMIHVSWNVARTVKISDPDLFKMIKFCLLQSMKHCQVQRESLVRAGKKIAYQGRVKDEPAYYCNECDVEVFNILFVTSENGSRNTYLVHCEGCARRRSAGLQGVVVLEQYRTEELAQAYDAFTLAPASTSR

KDM5A = KDM5A (Homo sapiens, UniProt P29375); conditions: Wang et al. 2013; cited from earlier work
Chain of KDM5A (P29375 whole entry, species assumed): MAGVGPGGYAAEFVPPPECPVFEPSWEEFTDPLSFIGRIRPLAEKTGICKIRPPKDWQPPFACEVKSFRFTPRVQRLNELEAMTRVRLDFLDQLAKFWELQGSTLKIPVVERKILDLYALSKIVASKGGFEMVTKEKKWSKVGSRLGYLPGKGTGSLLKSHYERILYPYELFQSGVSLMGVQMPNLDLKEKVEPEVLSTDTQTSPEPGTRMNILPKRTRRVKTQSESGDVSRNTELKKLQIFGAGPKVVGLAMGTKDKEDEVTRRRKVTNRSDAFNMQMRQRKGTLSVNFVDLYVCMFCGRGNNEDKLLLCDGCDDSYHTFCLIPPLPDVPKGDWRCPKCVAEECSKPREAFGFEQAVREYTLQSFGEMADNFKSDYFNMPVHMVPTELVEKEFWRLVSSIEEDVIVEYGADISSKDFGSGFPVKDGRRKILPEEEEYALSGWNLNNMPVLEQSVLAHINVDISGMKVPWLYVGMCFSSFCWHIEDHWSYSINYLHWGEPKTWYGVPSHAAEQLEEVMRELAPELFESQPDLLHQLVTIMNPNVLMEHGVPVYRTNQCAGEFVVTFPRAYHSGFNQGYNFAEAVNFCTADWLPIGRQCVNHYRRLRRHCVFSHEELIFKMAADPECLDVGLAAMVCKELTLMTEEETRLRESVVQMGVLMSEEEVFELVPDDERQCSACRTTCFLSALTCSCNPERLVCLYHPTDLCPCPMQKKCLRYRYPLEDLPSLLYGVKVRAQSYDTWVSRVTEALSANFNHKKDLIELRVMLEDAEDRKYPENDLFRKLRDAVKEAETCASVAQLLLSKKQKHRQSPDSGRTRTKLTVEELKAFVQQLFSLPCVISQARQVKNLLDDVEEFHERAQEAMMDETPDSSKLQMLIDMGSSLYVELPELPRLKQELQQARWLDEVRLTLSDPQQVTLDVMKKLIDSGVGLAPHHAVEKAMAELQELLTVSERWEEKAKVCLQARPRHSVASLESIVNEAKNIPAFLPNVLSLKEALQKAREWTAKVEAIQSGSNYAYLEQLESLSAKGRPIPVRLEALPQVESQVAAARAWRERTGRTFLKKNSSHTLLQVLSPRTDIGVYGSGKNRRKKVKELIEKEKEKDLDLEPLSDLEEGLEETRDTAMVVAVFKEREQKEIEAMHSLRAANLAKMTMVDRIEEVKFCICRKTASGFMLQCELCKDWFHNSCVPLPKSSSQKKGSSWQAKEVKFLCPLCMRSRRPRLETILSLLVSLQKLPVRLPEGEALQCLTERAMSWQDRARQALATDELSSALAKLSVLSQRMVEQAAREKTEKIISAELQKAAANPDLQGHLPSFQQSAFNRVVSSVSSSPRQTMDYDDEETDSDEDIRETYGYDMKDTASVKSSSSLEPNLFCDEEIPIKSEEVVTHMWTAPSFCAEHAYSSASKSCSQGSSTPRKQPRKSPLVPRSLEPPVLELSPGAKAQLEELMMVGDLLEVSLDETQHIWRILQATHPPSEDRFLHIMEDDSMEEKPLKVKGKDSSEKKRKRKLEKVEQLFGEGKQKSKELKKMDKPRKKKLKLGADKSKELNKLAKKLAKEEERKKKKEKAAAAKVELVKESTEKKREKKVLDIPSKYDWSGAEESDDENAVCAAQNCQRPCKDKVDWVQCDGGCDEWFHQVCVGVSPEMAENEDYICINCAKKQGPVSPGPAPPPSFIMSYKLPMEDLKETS

KDM4 family = conditions: Wang et al. 2013; cited from earlier work
KDM4A = test: Western blot of KDM4A protein levels in hypoxia; type: cell-based, human; conditions: RPE cells, 1% O2; for KDM4A stabilization / protein levels in hypoxia: 2 mM succinate
Experimental: Western blots were performed as in (Black et al. 2010).
Western Blots. Western blots were performed as in (Black et al. 2010). Briefly, adherent cells were either scraped directly into PBS, or washed with PBS, trypsinized and collected by centrifuging at 2,000 RPM for 5 minutes. For preparation of whole-cell lysates, cell pellets were washed once in ice-cold PBS and resuspended in RIPA lysis buffer [50 mM Tris pH 7.4, 150 mM NaCl, 0.25% Sodium Deoxycholate, 1% NP40, 1 mM EDTA, 10% Glycerol] supplemented with cOmplete protease inhibitor and PhosSTOP phosphatase inhibitor cocktails (Roche). Cells were lysed on ice for 15 minutes and immediately frozen at −80° C. for 10 minutes. Lysates were subsequently sonicated at 70% amplitude for 15 minutes in a QSonica Q700 sonicator and cleared of cell debris by centrifuging at 12,000 RPM for 15 minutes, before being analyzed by western blotting. For HIF1α and HIF2a expression, adherent cells were washed twice with ice-cold PBS and scraped directly in warmed 1× Laemmli buffer. Samples were sonicated at 70% amplitude for 15 minutes in a QSonica Q700™ and boiled at 95° C. for 10 minutes immediately prior to western blotting.

RPE cells [3] = test: Screen of chemical and metabolic stresses for site-specific copy gain (FISH); type: cell-based, human; conditions: 24 h treatment: 60 μM H2O2, 2 μg/ml Tunicamycin, 2 mM DTT, 5 mM NAC, 1 μM DMNQ
Experimental: Cells were treated with the following chemical and metabolic stresses for 24 hours at doses used in the literature: 2 μg/ml Tunicamycin (TU, Abcam), 60 μM H2O2(Thermo Fisher Scientific), reduced-serum DMEM (0.1% FBS), Glucose-free DMEM (No Gluc, GIBCO), 2 mM DTT (Sigma), 5 mM N-acetyl Cysteine (NAC, Sigma), and 1 μM 2,3-Dimethoxy-1,4-naphthoquinone (DMNQ, Sigma). For heat shock (HS) treatment, cells were incubated at 43° C. for 30 minutes and returned to 37° C. for 24 hours prior to collection.
FISH was performed as described in (Manning et al. 2010; Black et al. 2013). For RPE cells, copy gain was scored as any cell with 3 or more distinct foci. Approximately 100 cells for each replicate were scored for all experiments. All FISH experiments include at least 2 biological replicates. For each experiment at least one replicate includes FACS and western blot from the same cells used for FISH. For knockdown experiments, at least two different siRNA were used for each target. Results are presented as the average from both of the independent siRNAs.
FISH was performed as described in (Manning et al. 2010; Black et al. 2013). Probes for 1q12h, 1q telomere, chromosome 8 centromere (alpha satellite), and X centromere (alpha satellite) were purchased from Rainbow Scientific. Probes for Zebrafish BCL9 (CH73-15J19) and Zebrafish IGBP1 (CH73-223D24) were purchased as BAC clones from Children's Hospital Oakland Research Institute (CHORI BacPac) clone repository. Probes for 1q21.2 (BCL9) and 1q23.3 were purchased from Agilent (SureFISH). BACS were prepared utilizing PureLink HiPure™ Plasmid Filter Maxiprep kit (Life Technologies) using the recommended modified wash buffer. Probes were nick translated (Abbot Molecular Kit) in the presence of fluorescently labeled dTTP (Enzo Life Science). Images of multiple planes of fields of nuclei were acquired on an Olympus IX81™ Spinning Disk Microscope and analyzed using Slidebook 5.0™ software. We used a conservative scoring metric for copy gain. Any foci that were touching were scored as a single copy to prevent increased numbers due to normally replicated foci. For RPE cells, copy gain was scored as any cell with 3 or more distinct foci. For 293T cells, copy gain was scored for any cell with 5 or more distinct foci. For UMRC2 cells, copy gain was scored for any cell with 6 or more foci. For SK-N-AS cells, copy gain was scored for any cell with 5 or more foci. For MDA-MB-468 cells, copy gain was scored for any cell with 5 or more foci. For MDA-MB-231 cells, copy gain was scored for any cell with 7 or more foci. Approximately 100 cells for each replicate were scored for all experiments. All FISH experiments include at least 2 biological replicates. For each experiment, at least one replicate includes FACS and western blot from the same cells used for FISH. For knockdown experiments, at least two different siRNA were used for each target. Results are presented as the average from both of the independent siRNAs.

JmjC-containing proteins = conditions: Smith et al. 2007; Black et al. 2012; cited from earlier work

Molecule: Clc1ccc(N/N=C(\c2ccccc2)c2ccccn2)nc1 [JIB-04]
- hypoxia-dependent copy gain of 1q12h (FISH) (RPE cells [1]; 62.5 nM JIB-04 pre-treated 24 h, treated again, 1% O2 24 h): significantly reduced; also recorded: blocks hypoxia-dependent copy gain
- cell cycle profiles in hypoxia (RPE cells [2]; JIB-04 62.5 nM, 1% O2): did not substantially alter; also recorded: no difference in cell cycle phases
- inhibition of KDM6B (KDM6B): inhibits
- inhibition of KDM5A (KDM5A): inhibits
- inhibition of the KDM4 family (KDM4 family): inhibits
- KDM4A protein levels in hypoxia (KDM4A; JIB-04 62.5 nM): did not substantially alter; also recorded: does not alter KDM4A protein levels

Molecule: CC(=O)N[C@@H](CS)C(=O)O [N-Acetyl Cysteine, N-acetyl Cysteine]
- site-specific copy gain (FISH for 1q12h, Chr 8, 1q23.3, 1q21.2) (RPE cells [3]): did not induce site-specific copy gain
- site-specific copy gain (FISH for 1q12h, Chr 8, 1q23.3, 1q21.2) (RPE cells [3]; listed as N-acetyl Cysteine): do not induce site-specific copy gains

Molecule: O=C(O)CCC(=O)O [succinate]
- hypoxia-dependent copy gain of 1q12h (FISH) (RPE cells [1]; 2 mM succinate, 48 h normoxia then 1% O2 24 h): can be suppressed
- hypoxia-dependent copy gain of 1q12h (FISH) (RPE cells [1]; 2 mM succinate, 48 h normoxia then 1% O2 24 h, listed as Succinate): sufficient to abrogate
- cell cycle progression in hypoxia (RPE cells [2]; 1% O2): no difference in cell cycle phases
- cell cycle progression in hypoxia (RPE cells [2]; 1% O2, listed as Succinate): did not alter
- inhibition of JmjC-containing proteins (JmjC-containing proteins): can be inhibited
- KDM4A stabilization / protein levels in hypoxia (KDM4A): does not alter KDM4A protein levels
- KDM4A stabilization / protein levels in hypoxia (KDM4A; listed as Succinate): did not alter

Molecule: COC1=C(OC)C(=O)c2ccccc2C1=O [DMNQ, 2,3-Dimethoxy-1,4-naphthoquinone]
- site-specific copy gain (FISH for 1q12h, Chr 8, 1q23.3, 1q21.2) (RPE cells [3]): did not induce site-specific copy gain; also recorded: do not induce site-specific copy gains

Molecule: O[C@@H](CS)[C@@H](O)CS [DTT]
- site-specific copy gain (FISH for 1q12h, Chr 8, 1q23.3, 1q21.2) (RPE cells [3]): did not induce site-specific copy gain; also recorded: do not induce site-specific copy gains

Molecule: Tunicamycin
- site-specific copy gain (FISH for 1q12h, Chr 8, 1q23.3, 1q21.2) (RPE cells [3]): does not promote copy gain

Molecule: OO [H2O2]
- site-specific copy gain (FISH for 1q12h, Chr 8, 1q23.3, 1q21.2) (RPE cells [3]): does not promote copy gain
